Measurements reported in patent US10472324B2, “2-cyano-3-cyclopropyl-3-hydroxy-N-aryl-thioacrylamide derivatives” (Algiax Pharmaceuticals GmbH, priority 2014, dated 2019).

Assays:
human GABAA α3β3γ2 = human GABAA α3β3γ2 (Homo sapiens (Human), UniProt P18507+P28472+P34903); test: Patch clamp electrophysiology, positive modulation, HEK293 cells expressing GABAA α3β3γ2; type: cell-based; details: GABA EC20 current = 100%
Source text: (§1) Electrophysiological assays on different subunit combinations of the human GABAA receptor complex.
(§2) The functional positive modulation activity of the test compounds were investigated by using patch clamp techniques on HEK293 cells stably expressing different subunit combinations of the human GABAA receptor complex. In brief, the peak inward currents in response to the GABA (natural ligand of the GABAA receptors) additions in the presence of increasing concentrations of test compound were measured. To calculate the positive modulation activity the mean effect of GABA (EC20 concentration) was set to 100%.
(§3) A value of 100 percent equates to the compound having an effect equivalent to the addition of the EC20 concentration of GABA.

human GABAA α1β3γ2 = human GABAA α1β3γ2 (Homo sapiens (Human), UniProt P14867+P18507+P28472); test: Patch clamp electrophysiology, positive modulation, HEK293 cells expressing GABAA α1β3γ2; type: cell-based; details: GABA EC20 current = 100%
Source text: as §1, §2, §3

human GABAA α2β3γ2 = human GABAA α2β3γ2 (Homo sapiens (Human), UniProt P18507+P28472+P47869); test: Patch clamp electrophysiology, positive modulation, HEK293 cells expressing GABAA α2β3γ2; type: cell-based; details: GABA EC20 current = 100%
Source text: as §1, §2, §3

[1] = test system: acute pain induced by capsaicin injection in the hindpaw; test: Capsaicin induced pain model for acute pain, mechanical allodynia (von Frey); type: in vivo, rat; details: for reversal of acute pain induced by capsaicin injection: 1 or 10 mg/kg oral gavage, rat hindpaw
Procedure: (§4) Mechanical allodynia thresholds were determined according to the methods described by Chaplan and colleagues (Chaplan et al., 1994). At the designated post-operative time points the injured rats were placed in an elevated clear-plastic, wire mesh-bottomed cage. After a 10- to 15-min acclimation period, eight von Frey filaments (Stoelting, Wood Dale, Ill.) with bending forces ranging from 2 to 60 g were used to determine the 50% mechanical threshold for paw withdrawal using the up-and-down method.
Capsaicin induced pain as in vivo model for acute pain
Rats were gently restrained and capsaicin (10 μg in 10 μI of 10% Tween80) in saline was injected into the plantar surface of the hindpaw using a 0.3 ml insulin syringe with a 29-gauge needle (Terumo Europe, Belgium).
After injection of Capsaicin, individual rats were randomly assigned into a treatment group. The following groups were used:
Group 2: Capsaicin injection+ Example 1 (1 mg/kg) in vehicle by oral gavage about 40 minutes after injection.
Group 3: Capsaicin injection+ Example 3 (1 mg/kg) in vehicle by oral gavage about 40 minutes after injection.
Group 2: Capsaicin injection+ Example 2 (10 mg/kg) in vehicle by oral gavage about 40 minutes after injection.
Group 3: Capsaicin injection+ Example 6 (10 mg/kg) in vehicle by oral gavage about 40 minutes after injection.

[2] = test system: neuropathic pain induced by spinal nerve ligation (SNL) injury; test: SNL model or Chung model for peripheral neuropathic pain, mechanical allodynia (von Frey); type: in vivo, rat; details: for reversal of neuropathic pain induced by spinal nerve ligation: 10 mg/kg oral gavage for 5 days, rat; for 50% paw withdrawal threshold: cut-off 60 g
Procedure: SNL model or Chung model as in vivo model for peripheral neuropathic pain
Surgery was performed according to the method of Chung et al., 2004 (see List of References). In brief, animals are anesthetized and the hair on their backs is trimmed. Under sterile conditions, a longitudinal incision is made at the lower lumbar and sacral levels, exposing the paraspinal muscles on the left. Connective tissues and muscles are removed by a small scraper, after which bony structures become visible. The L6 vertebra left transverse process of animal was first removed to expose the L4 and L5 spinal nerves. The L5 spinal nerve was then carefully isolated and tightly ligated with 6-0 silk thread. Surgery was always performed on the left leg (Ipsilateral paw), the right leg (contralateral paw) remained intact and served as a control. On completion of the operation, hemostasis is confirmed and the muscles are sutured in layers using silk thread and the skin is closed with metal clips, anesthesia is then discontinued. Axonal degeneration occurs, with all types of axons being approximately equally affected. Pronounced mechanical allodynia follows, accompanied by spontaneous pain behaviors, which lasts for several weeks without recovery. Mechanical allodynia is typically assessed beginning 1-2 weeks post-surgery.
as §4
After spinal nerve ligation (SNL) injury, individual rats were randomly assigned into a treatment group. The following groups were used:
Group 2: SNL+ Example 1 (10 mg/kg) in vehicle by oral gavage for 5 days from DPO7 (pre-treat) till DPO12.
Group 3: SNL+ Example 2 (10 mg/kg) in vehicle by oral gavage for 5 days from DPO7 (pre-treat) till DPO12.
Group 2: SNL+ Example 3 (10 mg/kg) in vehicle by oral gavage for 5 days from DPO14 till DPO19.
Group 3: SNL+ Example 4 (10 mg/kg) in vehicle by oral gavage for 5 days from DPO14 till DPO19.
Group 4: SNL+ Example 6 (10 mg/kg) in vehicle by oral gavage for 5 days from DPO14 till DPO19.

[3] = target: GABA gated Cl-channel (GABA.A receptor complex); test: GABAA receptor binding assay ([35S]TBPS radioligand); details: 3 nM [35S]TBPS, rat cerebral cortex membrane homogenates, 120 min at 22° C.
Procedure: GABAA Receptor Binding Assay:
The affinity of the test compounds for the GABA gated Cl-channel (GABA.A receptor complex) in the rat cerebral cortex was determined in a radioligand binding assay (Lewin et al,. 1989). Membrane homogenates of cerebral cortex are incubated for 120 min at 22° C. with 3 nM [35S]TBPS (-t-butylbicyclophosphoorothionate) in the presence and absence of the test compound.
Following incubation, the samples are filtered rapidly under vacuum through glass fiber filters and rinsed several times with ice-cold buffer using a 96-sample cell harvester. The filters are dried then counted for radioactivity in a scintilliation counter using a scintillation cocktail (Microscint 0, Packard). Each compound was tested at several concentrations to calculate the IC50 values of the affinity to the GABA.A receptor complex in cerebral cortex of rats.

[4] = Experiment 1, 1 mg/kg oral gavage about 40 minutes after capsaicin, 150 minutes after capsaicin injection
[5] = Experiment 1, 1 mg/kg oral gavage about 40 minutes after capsaicin, 210 minutes after capsaicin injection
[6] = Experiment 1, 10 mg/kg oral gavage 5 days DPO7-DPO12, at DPO35 (end of experiment)
[7] = Experiment 2, 10 mg/kg oral gavage about 40 minutes after capsaicin, 150 minutes after capsaicin injection
[8] = Experiment 2, 10 mg/kg oral gavage about 40 minutes after capsaicin, 210 minutes after capsaicin injection
[9] = Experiment 2, 10 mg/kg oral gavage 5 days DPO14-DPO19, after DPO21 till end of experiment at DPO35
[10] = Experiment 2, 10 mg/kg oral gavage 5 days DPO14-DPO19, at DPO21

Sequence of human GABAA α1β3γ2 (P14867 28-456): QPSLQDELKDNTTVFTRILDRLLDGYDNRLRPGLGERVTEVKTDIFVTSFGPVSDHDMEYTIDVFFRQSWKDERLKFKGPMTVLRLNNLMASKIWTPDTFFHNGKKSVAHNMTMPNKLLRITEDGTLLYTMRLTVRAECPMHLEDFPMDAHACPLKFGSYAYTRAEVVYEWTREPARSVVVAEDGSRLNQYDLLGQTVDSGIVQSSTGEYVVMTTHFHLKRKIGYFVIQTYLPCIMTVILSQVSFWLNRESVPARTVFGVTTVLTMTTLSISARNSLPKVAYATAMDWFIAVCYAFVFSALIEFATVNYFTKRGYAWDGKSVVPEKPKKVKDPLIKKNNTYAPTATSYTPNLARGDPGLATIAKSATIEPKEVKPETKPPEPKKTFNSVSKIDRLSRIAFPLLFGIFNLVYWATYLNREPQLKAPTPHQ
Sequence of human GABAA α1β3γ2 (P28472 26-473): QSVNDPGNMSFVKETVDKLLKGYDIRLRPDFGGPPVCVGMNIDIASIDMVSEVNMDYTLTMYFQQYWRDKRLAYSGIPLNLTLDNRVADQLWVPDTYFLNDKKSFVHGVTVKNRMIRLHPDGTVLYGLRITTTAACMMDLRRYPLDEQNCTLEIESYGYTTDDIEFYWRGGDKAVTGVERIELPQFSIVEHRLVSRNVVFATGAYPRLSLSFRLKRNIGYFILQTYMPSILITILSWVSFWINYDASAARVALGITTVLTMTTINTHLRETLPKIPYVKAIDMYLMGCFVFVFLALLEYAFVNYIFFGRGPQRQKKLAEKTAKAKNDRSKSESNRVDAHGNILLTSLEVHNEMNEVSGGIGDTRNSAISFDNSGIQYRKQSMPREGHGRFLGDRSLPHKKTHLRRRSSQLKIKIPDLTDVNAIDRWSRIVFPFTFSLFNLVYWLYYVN
Sequence of human GABAA α1β3γ2 (P18507 40-475): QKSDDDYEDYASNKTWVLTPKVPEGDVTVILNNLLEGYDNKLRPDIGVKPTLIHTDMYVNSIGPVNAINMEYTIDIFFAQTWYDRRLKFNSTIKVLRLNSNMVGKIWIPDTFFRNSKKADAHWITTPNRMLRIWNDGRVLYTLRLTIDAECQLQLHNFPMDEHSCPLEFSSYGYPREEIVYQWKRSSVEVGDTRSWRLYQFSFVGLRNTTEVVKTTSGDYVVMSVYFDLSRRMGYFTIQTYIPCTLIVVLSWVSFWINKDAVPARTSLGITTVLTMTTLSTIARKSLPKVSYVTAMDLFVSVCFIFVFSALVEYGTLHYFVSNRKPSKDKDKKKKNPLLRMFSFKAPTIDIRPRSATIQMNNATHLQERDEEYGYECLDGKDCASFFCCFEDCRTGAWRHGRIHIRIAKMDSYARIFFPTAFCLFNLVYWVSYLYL
Sequence of human GABAA α3β3γ2 (P34903 29-492): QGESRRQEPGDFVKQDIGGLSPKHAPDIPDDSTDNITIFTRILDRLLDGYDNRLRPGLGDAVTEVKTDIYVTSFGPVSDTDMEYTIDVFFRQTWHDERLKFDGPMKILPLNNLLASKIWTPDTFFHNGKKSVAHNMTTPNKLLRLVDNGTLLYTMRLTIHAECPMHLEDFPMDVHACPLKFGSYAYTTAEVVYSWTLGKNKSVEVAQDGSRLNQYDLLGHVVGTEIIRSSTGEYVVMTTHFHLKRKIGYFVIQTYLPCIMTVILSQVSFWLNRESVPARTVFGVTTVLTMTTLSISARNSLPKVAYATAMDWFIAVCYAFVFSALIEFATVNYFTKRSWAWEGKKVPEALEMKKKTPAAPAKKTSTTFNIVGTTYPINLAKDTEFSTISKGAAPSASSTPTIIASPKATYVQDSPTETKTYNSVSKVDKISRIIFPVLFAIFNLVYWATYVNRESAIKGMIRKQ
Sequence of human GABAA α3β3γ2 (P28472 26-473): as the sequence (P28472 26-473) above
Sequence of human GABAA α3β3γ2 (P18507 40-475): as the sequence (P18507 40-475) above
Sequence of human GABAA α2β3γ2 (P47869 29-451): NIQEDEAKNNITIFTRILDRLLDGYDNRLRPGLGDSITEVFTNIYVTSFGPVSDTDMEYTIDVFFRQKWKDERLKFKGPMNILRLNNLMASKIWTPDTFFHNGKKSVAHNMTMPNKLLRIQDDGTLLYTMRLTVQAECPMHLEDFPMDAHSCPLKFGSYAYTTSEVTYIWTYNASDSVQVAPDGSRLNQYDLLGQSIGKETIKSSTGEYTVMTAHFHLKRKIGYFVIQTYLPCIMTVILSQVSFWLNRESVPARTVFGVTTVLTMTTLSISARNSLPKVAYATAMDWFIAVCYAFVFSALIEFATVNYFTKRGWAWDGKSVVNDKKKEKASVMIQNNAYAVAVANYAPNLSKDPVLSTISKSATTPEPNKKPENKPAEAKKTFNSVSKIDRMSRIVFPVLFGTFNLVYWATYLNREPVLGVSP
Sequence of human GABAA α2β3γ2 (P28472 26-473): as the sequence (P28472 26-473) above
Sequence of human GABAA α2β3γ2 (P18507 40-475): as the sequence (P18507 40-475) above

Row | SMILES | IC50 [3] | GABAA α3β3γ2 normalized percent current (human GABAA α3β3γ2; 10 μM test compound) | GABAA α1β3γ2 normalized percent current (human GABAA α1β3γ2; 10 μM test compound) | GABAA α2β3γ2 normalized percent current (human GABAA α2β3γ2; 10 μM test compound) | reversal of acute pain induced by capsaicin injection [1] | reversal of neuropathic pain induced by spinal nerve ligation [2] | 50% paw withdrawal threshold [2, 10] | other results
1 | Cc1cc(NC(=S)C(C#N)=C(O)C2CC2)ccc1C(F)(F)F [Example 1, 2-Cyano-3-cyclopropyl-3-hydroxy-N-(3-methyl-4-trifluormethyl-phenyl)-thioacrylamide] | 5.3 µM | 697% | 792% | 614% | can reverse acute pain | can reverse neuropathic pain | – | 50% paw withdrawal threshold [1, 4]: 30 g; 50% paw withdrawal threshold [1, 5]: ~50 g; 50% paw withdrawal threshold [2, 6]: 30 g
2 | Cc1cc(NC(=S)C(C#N)=C(O)C2CC2)ccc1[N+](=O)[O-] [Example 3, 2-Cyano-3-cyclopropyl-3-hydroxy-N-(3-methyl-4-nitro-phenyl)-thioacrylamide] | 6 µM | – | – | – | can reverse acute pain | can reverse neuropathic pain | about 35 g | GABAA α3β3γ2 normalized percent current (human GABAA α3β3γ2; 50 μM test compound): 469%; GABAA α1β3γ2 normalized percent current (human GABAA α1β3γ2; 50 μM test compound): 424%; GABAA α2β3γ2 normalized percent current (human GABAA α2β3γ2; 50 μM test compound): 380%; 50% paw withdrawal threshold [1, 4]: 40 g; 50% paw withdrawal threshold [1, 5]: ~50 g; 50% paw withdrawal threshold [2, 9]: 23 to 25 g
3 | N#CC(C(=S)Nc1ccc(SC(F)(F)F)cc1)=C(O)C1CC1 [Example 5, 2-Cyano-3-cyclopropyl-3-hydroxy-N-(4-trifluoromethylsulfanyl-phenyl)-thioacrylamide] | 7.7 µM | 315% | 707% | 453% | – | – | – | –
4 | Cc1cc(NC(=S)C(C#N)=C(O)C2CC2)ccc1C#N [Example 6, 2-Cyano-N-(4-cyano-3-methyl-phenyl)-3-cyclopropyl-3-hydroxy-thioacrylamide] | 7.9 µM | 357% | 338% | 286% | can reverse acute pain | can reverse neuropathic pain | ~40 g | 50% paw withdrawal threshold [1, 7]: 35 g; 50% paw withdrawal threshold [1, 8]: 25 g

More lines, main results first:

Row | IC50 [3] | SMILES | GABAA α3β3γ2 normalized percent current (human GABAA α3β3γ2; 10 μM test compound) | GABAA α1β3γ2 normalized percent current (human GABAA α1β3γ2; 10 μM test compound) | GABAA α2β3γ2 normalized percent current (human GABAA α2β3γ2; 10 μM test compound) | reversal of acute pain induced by capsaicin injection [1] | reversal of neuropathic pain induced by spinal nerve ligation [2] | 50% paw withdrawal threshold [2, 10] | other results
5 | 8.3 µM | Cc1cc(NC(=S)C(C#N)=C(O)C2CC2)ccc1F [Example 2, 2-Cyano-3-cyclopropyl-N-(4-fluoro-3-methyl-phenyl)-3-hydroxy-thioacrylamide] | – | – | – | can reverse acute pain | can reverse neuropathic pain | – | GABAA α3β3γ2 normalized percent current (human GABAA α3β3γ2; 50 μM test compound): 835%; GABAA α1β3γ2 normalized percent current (human GABAA α1β3γ2; 50 μM test compound): 734%; GABAA α2β3γ2 normalized percent current (human GABAA α2β3γ2; 50 μM test compound): 470%; 50% paw withdrawal threshold [1, 7]: ~40 g; 50% paw withdrawal threshold [1, 8]: ~33 g; 50% paw withdrawal threshold ([2]; Experiment 1, 10 mg/kg oral gavage 5 days DPO7-DPO12, at DPO21): 40 g; 50% paw withdrawal threshold [2, 6]: 40 g
6 | 8.7 µM | N#CC(C(=S)Nc1ccc([N+](=O)[O-])cc1)=C(O)C1CC1 [Example 4, 2-Cyano-3-cyclopropyl-3-hydroxy-N-(4-nitro-phenyl)-thioacrylamide] | – | – | – | – | can reverse neuropathic pain | ~50 g | 50% paw withdrawal threshold [2, 9]: 30 g
7 | 9.6 µM | N#CC(C(=S)Nc1ccc(C#N)cc1)=C(O)C1CC1 [Example 7, 2-Cyano-N-(4-cyano-phenyl)-3-cyclopropyl-3-hydroxy-thioacrylamide] | – | – | – | – | – | – | –
8 | 10.3 µM | N#CC(C(=S)Nc1ccc([S+]([O-])C(F)(F)F)cc1)=C(O)C1CC1 (stereo not shown) [Example 8, 2-Cyano-3-cyclopropyl-3-hydroxy-N-(4-trifluoromethanesulfinyl-phenyl)-thioacrylamide] | – | – | – | – | – | – | –
9 | 5 µM | N#CC(C(=S)Nc1ccc(S(=O)(=O)C(F)(F)F)cc1)=C(O)C1CC1 [Example 9, 2-Cyano-3-cycopropyl-3-hydroxy-N-(4-trifluoromethanesulfonyl-phenyl)-thioacrylamide] | 328% | 286% | 259% | – | – | – | –
